Assays:
Type in all cases: in vivo
Echinochloa crus-galli [1] = test: Test Example 2: herbicidal effect test by treatment during growing period in paddy rice cultivation (seven days after seeding); conditions: 120 g/10a active ingredient, assessed 14 days after treatment, dry weight vs untreated area
Protocol: (§1) This test was conducted in a double system per one agent solution concentration area, and the herbicidal rates (%) were determined by the following equation (Math. 1) on 14 days after the treatment with the agents. Herbicidal Rate (%)={1-(Average Dry Weight (g) of Plant of Treated Area)/(Average Dry Weight (g) of Plant of Untreated Area)}×100 [Math. 1]
(§2) Herbicidal Effect Test by Treatment During Growing Period in Paddy Rice Cultivation
(§3) Wagner pots with an area of 1/10000 ares were filled with a paddy soil, and after adding water, a compound fertilizer (N:P:K=17:17:17) was mixed, followed by soil puddling. Then, Echinochloa crus-galli, broad leaf weeds (Lindernia pyxidaria and Monochoria vaginalis) and Scirpus juncoides, 30 seeds each, were sown in a depth of 0 to 1 cm. Water was poured immediately after seeding, and the water depth was kept at about 3 cm. The subsequent management was conducted in a glass greenhouse. Emulsions prepared using the compounds in Table 4 below according to Formulation Example 5 were diluted with water seven days after seeding, and a certain amount of the water-diluted agent solutions were dropped. The converted amount of the applied active ingredient corresponded to 120 g per 10 ares. The test was conducted in a double system per one agent solution concentration area, and the herbicidal rates (%) were determined by the equation (Math. 1) on 14 days after the treatment with the agents. […] The compound numbers in Table 4 are the same as those in Table 1 and Table 2 above.

[2] = tested on: broad leaf weeds (Lindernia pyxidaria and Monochoria vaginalis); test: as above; conditions: 120 g/10a active ingredient, assessed 14 days after treatment, dry weight vs untreated area
Protocol: as §1, §2, §3

Scirpus juncoides [3] = test: as above; conditions: 120 g/10a active ingredient, assessed 14 days after treatment, dry weight vs untreated area
Protocol: as §1, §2, §3

Echinochloa crus-galli [4] = test: Test Example 1: herbicidal effect test by treatment of rice paddy soil (immediately after seeding); conditions: 120 g/10a active ingredient, dry weight vs untreated area, 14 days after treatment
Protocol: (§4) Herbicidal Effect Test by Treatment of Rice Paddy Soil
(§5) Wagner pots with an area of 1/10000 ares were filled with a paddy soil, and after adding water, a compound fertilizer (N:P:K=17:17:17) was added, followed by soil puddling. Then, Echinochloa crus-galli, broad leaf weeds (Lindernia pyxidaria and Monochoria vaginalis) and Scirpus juncoides, 30 seeds each, were sown in a depth of 0 to 1 cm. Water was poured immediately after seeding, and the water depth was kept at about 3 cm. The subsequent management was conducted in a glass greenhouse. Immediately after that, emulsions prepared using the compounds in Table 3 below according to Formulation Example 5 were diluted with water, and a certain amount of the water-diluted agent solutions were dropped. The converted amount of the applied active ingredient corresponded to 120 g per 10 ares.
as §1
(§6) The compound numbers in Table 3 are the same as those in Table 1 and Table 2 above.

[5] = tested on: broad leaf weeds (Lindernia pyxidaria and Monochoria vaginalis); test: as above; conditions: 120 g/10a active ingredient, dry weight vs untreated area, 14 days after treatment
Protocol: as §4, §5, §1, §6

Scirpus juncoides [6] = test: as above; conditions: 120 g/10a active ingredient, dry weight vs untreated area, 14 days after treatment
Protocol: as §4, §5, §1, §6

Structure (SMILES) | Herbicidal rate (%) Echinochloa crus-galli (Echinochloa crus-galli [1]) [%] | Herbicidal rate (%) Lindernia pyxidaria [2] [%] | Herbicidal rate (%) Monochoria vaginalis [2] [%] | Herbicidal rate (%) Scirpus juncoides (Scirpus juncoides [3]) [%] | Herbicidal rate (%) Echinochloa crus-galli (Echinochloa crus-galli [4]) [%] | Herbicidal rate (%) Lindernia pyxidaria [5] [%] | Herbicidal rate (%) Monochoria vaginalis [5] [%] | Herbicidal rate (%) Scirpus juncoides (Scirpus juncoides [6]) [%]
Cc1c(Cc2ccccc2N(S(=O)(=O)C(F)(F)F)S(=O)(=O)C(F)(F)F)c(=O)on1CC1CCCCC1 [Compound 1-994] | 90 | 60 | 80 | 80 | 90 | 100 | 60 | 90
Cc1c(Cc2ccccc2N(S(=O)(=O)C(F)(F)F)S(=O)(=O)C(F)(F)F)c(=O)on1Cc1ccc(Cl)cc1 [Compound 1-1015] | 70 | 90 | 90 | 90 | 90 | 100 | 90 | 90
COc1ccc(Cn2oc(=O)c(Cc3ccccc3NS(=O)(=O)C(F)(F)F)c2C)cc1 [Compound 1-195] | 80 | 40 | 40 | 80 | 90 | 70 | 60 | 90
Cc1c(Cc2ccccc2NS(=O)(=O)C(F)(F)F)c(=O)on1Cc1ccc(C(C)(C)C)cc1 [Compound 1-192] | 40 | 80 | 80 | 60 | 90 | 100 | 100 | 40
Cc1c(Cc2ccccc2N(S(=O)(=O)C(F)(F)F)S(=O)(=O)C(F)(F)F)c(=O)on1CCc1ccccc1 [Compound 1-1043] | 90 | 100 | 100 | 90 | 100 | 100 | 100 | 90
Cc1c(Cc2ccccc2N(C(=O)OCC(C)C)S(=O)(=O)C(F)(F)F)c(=O)on1Cc1ccccc1 [Compound 1-677] | 70 | 80 | 80 | 90 | 90 | 100 | 100 | 90
Cc1c(Cc2ccccc2N(S(=O)(=O)C(F)(F)F)S(=O)(=O)C(F)(F)F)c(=O)on1Cc1ccc(F)cc1F [Compound 1-1026] | 60 | 100 | 90 | 80 | 100 | 100 | 100 | 90
C=CCn1oc(=O)c(Cc2ccccc2NS(=O)(=O)C(F)(F)F)c1C [Compound 1-135] | 80 | 40 | 60 | 90 | 90 | 90 | 60 | 90
Cc1c(Cc2ccccc2NS(=O)(=O)C(F)(F)F)c(=O)on1C(C)c1ccccc1Cl (stereo not drawn) [Compound 1-205] | 50 | 90 | 90 | 80 | 100 | 100 | 100 | 90
